Reference: publication PMC8901439 (Molecular Cell, 2022)

Assays:
Format in all cases: biochemical
Dnmt1 [1] = target: T1, Dnmt1 (Mus musculus, UniProt P13864, N1580A); test: single-turnover azidoalkylation kinetics on hemimethylated 25-mer DNA
Dnmt1 [2] = target: T2, Dnmt1 (Mus musculus, UniProt P13864, R1576A/N1580A); test: as above
Dnmt1 [3] = target: Dnmt1 (Mus musculus, UniProt P13864); test: single-turnover methylation kinetics on hemimethylated 25-mer DNA
Dnmt1 [4] = target: T1, Dnmt1; test: as above
Dnmt1 [5] = target: T2, Dnmt1; test: as above

T2 sequence (P13864 291-1620 R1576A/N1580A): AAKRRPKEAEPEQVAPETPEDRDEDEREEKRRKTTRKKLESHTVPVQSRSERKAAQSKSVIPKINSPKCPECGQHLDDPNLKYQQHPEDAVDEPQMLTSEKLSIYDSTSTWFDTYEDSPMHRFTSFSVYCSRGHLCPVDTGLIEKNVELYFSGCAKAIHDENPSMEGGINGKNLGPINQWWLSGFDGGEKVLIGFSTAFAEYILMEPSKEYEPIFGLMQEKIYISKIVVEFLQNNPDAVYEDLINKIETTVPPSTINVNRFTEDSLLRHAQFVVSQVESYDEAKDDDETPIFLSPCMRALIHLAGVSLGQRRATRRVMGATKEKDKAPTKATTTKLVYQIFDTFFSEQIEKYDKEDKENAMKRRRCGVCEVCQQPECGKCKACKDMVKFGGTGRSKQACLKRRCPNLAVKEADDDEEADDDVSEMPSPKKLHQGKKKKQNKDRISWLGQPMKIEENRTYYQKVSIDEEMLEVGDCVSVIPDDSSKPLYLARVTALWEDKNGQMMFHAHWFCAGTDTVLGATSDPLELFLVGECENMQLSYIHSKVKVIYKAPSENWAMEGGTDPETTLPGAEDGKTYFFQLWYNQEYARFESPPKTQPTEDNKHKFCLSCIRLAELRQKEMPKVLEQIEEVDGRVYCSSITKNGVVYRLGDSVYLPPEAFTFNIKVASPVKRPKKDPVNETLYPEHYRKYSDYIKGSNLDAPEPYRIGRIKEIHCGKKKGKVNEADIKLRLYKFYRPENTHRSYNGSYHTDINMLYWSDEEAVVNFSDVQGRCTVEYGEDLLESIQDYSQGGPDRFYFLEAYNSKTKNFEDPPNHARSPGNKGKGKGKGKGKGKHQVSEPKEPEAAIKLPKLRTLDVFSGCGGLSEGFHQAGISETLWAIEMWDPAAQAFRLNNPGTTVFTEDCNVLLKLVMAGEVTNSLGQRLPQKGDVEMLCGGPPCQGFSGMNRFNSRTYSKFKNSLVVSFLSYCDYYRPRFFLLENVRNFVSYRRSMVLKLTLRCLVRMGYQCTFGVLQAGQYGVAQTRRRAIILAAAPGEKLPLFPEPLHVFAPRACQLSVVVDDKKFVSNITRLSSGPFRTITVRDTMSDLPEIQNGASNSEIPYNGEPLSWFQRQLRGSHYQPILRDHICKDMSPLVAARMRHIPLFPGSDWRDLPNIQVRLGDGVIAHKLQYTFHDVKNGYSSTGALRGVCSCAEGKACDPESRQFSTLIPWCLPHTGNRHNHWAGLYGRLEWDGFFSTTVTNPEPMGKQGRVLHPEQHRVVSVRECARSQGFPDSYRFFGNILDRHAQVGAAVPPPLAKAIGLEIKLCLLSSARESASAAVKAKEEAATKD
T1 sequence (P13864 291-1620 N1580A): as the sequence (P13864 291-1620 R1576A/N1580A) above, with A1286R counted along it
Sequence of Dnmt1 (Mus musculus, UniProt P13864) (P13864 291-1620): as the sequence (P13864 291-1620 R1576A/N1580A) above, with A1286R, A1290N counted along it

kchem^Ado-6-azide azidoalkylation / min^-1 (Dnmt1 [1])	kchem^Ado-6-azide azidoalkylation / min^-1 (Dnmt1 [2])	kchem^AdoMet methylation / min^-1 (Dnmt1 [3])	kchem^AdoMet methylation / min^-1 (Dnmt1 [4])	kchem^AdoMet methylation / min^-1 (Dnmt1 [5])	Compound
1.4 ± 0.13 min⁻¹	0.27 ± 0.025 min⁻¹				[N-]=[N+]=NCCCC#CC[S+](CC[C@H](N)C(=O)O)C[C@H]1O[C@@H](n2cnc3c(N)ncnc32)[C@H](O)[C@@H]1O (mixture of isomers) [Ado-6-azide]
		3.0 ± 0.13 min⁻¹	0.104 ± 0.002 min⁻¹	0.035 ± 0.002 min⁻¹	C[S+](CC[C@H](N)C(=O)[O-])C[C@H]1O[C@@H](n2cnc3c(N)ncnc32)[C@H](O)[C@@H]1O (some centres unmarked) [AdoMet]
